One test relates to Staphylococcus aureus. Nature of the test: Antibacterial activity against methicillin-sensitive Staphylococcus aureus ATCC 25923 measured after 18 hrs by broth dilution method. Type of test: functional. The conditions noted are these: ATCC 25923, 18 h. (In broth dilution the organism is exposed to a series of concentrations in liquid medium.)
A further test concerns Micrococcus luteus. Briefly: Antibacterial activity against Micrococcus luteus ATCC 9431 measured after 18 hrs by broth dilution method. In kind it is functional. The conditions noted are these: ATCC 9431, 18 h.

One may read the MIC as the lowest concentration found to suppress growth. Low readings indicate greater potency, high ones weaker potency. Consider `C[C@]12C[C@@]34C=CC(=O)[C@@](C)(CCC(=O)Nc5c(O)ccc(C(=O)S[C@H]6CC(=O)[C@@](C)(CCC(=O)Nc7c(O)ccc(C(=O)O)c7O)[C@@H]7[C@@H]8C[C@@H]9C[C@]67C[C@]9(C)O8)c5O)[C@@H]3[C@H](C[C@@H]1C4)O2`, for which the minimum inhibitory concentration (MIC) against Staphylococcus aureus was determined as 0.56 µM; in the test with Micrococcus luteus, 0.28 µM.
For the compound `COc1ccc(C(=O)SC)c(OC)c1NC(=O)CC[C@]1(C)C(=O)C=C[C@]23C[C@H]4C[C@H](O[C@@]4(C)C2)[C@H]31`, the MIC with Staphylococcus aureus is over 64 µg/mL; against Micrococcus luteus, 64 µg/mL.
Taken in the same sequence, the figures for `C[C@]12C[C@@]34C=CC(=O)[C@@](C)(CCC(=O)Nc5c(O)ccc(C(=O)O)c5O)[C@@H]3[C@H](C[C@@H]1C4)O2` were 1.13 µM and 1.13 µM.

The record behind these values is ChEMBL document CHEMBL3864122, “Antibacterial sulfur-containing platensimycin and platencin congeners from Streptomyces platensis SB12029” (2016).
